How the values were obtained:
[1] = test system: L. monocytogenes; test: L. monocytogenes cocktail challenge on sprouts grown from soaked seeds (MPN and direct plating); assay type: cell-based, Listeria monocytogenes; settings: grown 21 days at 40° F.
Description: (§1) Isolates used to inoculate cryo-sprouts were grown in pure culture and quantitated in order to determine dilutions required to achieve a target level when inoculated into the product.
(§2) The study encompassed three treatments exposed to two different temperatures over the course of 28 days, with weekly pulls, see Table 1 below.
(§3) Initial counts were determined immediately after inoculation for each treatment on Day 0, and again after incubation at 40° F. for 21 days, and 50° F. for 12 days. Subsequent pulls occurred on a weekly basis from Day 0 (after the 21 days at 40° F. or after 12 days at 50° F.) through Day 28.
(§4) The pulls occurred on Shelf Life Day 0, 7, 14, 21, and 28.
(§5) One milliliter from each of the five Salmonella cultures was combined to form a cocktail. The Listeria monocytogenes and E. coli O157:H7 cultures were similarly combined to form a second and third cocktail. These three cocktails were diluted and added to the trays containing 60 ml of deionized water.
(§6) Plastic trays with membrane were filled with 35 grams of soaked sprout seeds representing each of the three treatment groups.
(§7) Sixty milliliters of deionized water was added to each tray along with a final concentration of approximately 1.0 E+3-1.0 E+4 cfu/ml of each of the three cocktails (Salmonella and Listeria together in one set, and E. coli O157:H7 into another set).
Listeria samples were serially diluted and plated on a TSA basal layer and capped with Modified Oxford Medium (MOX), incubated at 95° F. (35° C.) for 2 days. An MPN, consisting of a combination of the three samples, was also set up on each pull day due to the high number of other organisms present in the samples which obscured the direct counts.

[2] = test system: E. coli O157:H7; test: E. coli O157:H7 cocktail challenge on sprouts grown from soaked seeds (MPN and direct plating); assay type: cell-based
Description: as §1, §2, §3, §4, §5, §6, §7
E. coli O157:H7 samples were serially diluted and plated on a TSA basal layer and capped with EMB, incubated at 95° F. (35° C.) for 2 days. An MPN, consisting of a combination of the three samples, was also set up on each pull day due to the high number of other organisms present in the samples which obscured the direct counts.

[3] = test system: Salmonella, Listeria monocytogenes, and E. coli O157:H7; test: Pathogen challenge study, overall impact of soak treatments versus Control; assay type: cell-based; settings: seed soak treatments; 40° F. and 50° F.
[4] = test system: total aerobic bacteria; test: Aerobic Plate Count at Shelf Life Day 28 on samples grown at 40° F.; assay type: cell-based
Description: Aerobic Plate Counts were also analyzed at Shelf Life Day 28 on the samples grown at 40° F. by plating to Standard Methods Agar and incubated at 95° F. for 2 days to determine the total aerobic bacteria present in the samples.

[5] = grown 12 days at 50° F., Shelf Life Day 0
[6] = grown 12 days at 50° F., Shelf Life Day 7 at 40° F.
[7] = grown 12 days at 50° F., Shelf Life Day 14 at 40° F.
[8] = grown 12 days at 50° F., Shelf Life Day 21 at 40° F.
[9] = grown 12 days at 50° F., Shelf Life Day 28 at 40° F.
[10] = grown 21 days at 40° F., held at 40° F., end of study, below detectable limit
[11] = grown 21 days at 40° F., Shelf Life Day 0 at 40° F.
[12] = grown 21 days at 40° F., Shelf Life Day 7 at 40° F.
[13] = grown 21 days at 40° F., Shelf Life Day 14 at 40° F.
[14] = grown 21 days at 40° F., Shelf Life Day 21 at 40° F.
[15] = grown 21 days at 40° F., Shelf Life Day 28 at 40° F.

Structure (SMILES): CC(=O)O [Acetic Acid, acetic acid]
- Log10 (L. monocytogenes MPN/g) or (CFU) ([1]; Shelf Life Day 7 at 40° F.): 0.63 Log10 MPN/g
- L. monocytogenes log increase, direct plating ([1]; Shelf Life Day 14): 1.33 logs
- L. monocytogenes direct plating counts, average ([1]; Shelf Life Day 14, 21, and 28): approximately 4 logs
- L. monocytogenes (MPN/g) or (CFU) ([1]; Shelf Life Day 14 at 40° F.): > 1,100 MPN/g
- Log10 (L. monocytogenes MPN/g) or (CFU) ([1]; Shelf Life Day 14 at 40° F.): 3.04 Log10 MPN/g
- L. monocytogenes direct plating count ([1]; Shelf Life Day 21): 4.04 logs
- L. monocytogenes log increase, direct plating ([1]; Shelf Life Day 21): 1.23 logs
- L. monocytogenes (MPN/g) or (CFU) ([1]; Shelf Life Day 21 at 40° F.): 930 MPN/g
- Log10 (L. monocytogenes MPN/g) or (CFU) ([1]; Shelf Life Day 21 at 40° F.): 2.97 Log10 MPN/g
- L. monocytogenes direct count log value ([1]; Shelf Life Day 28): 4.50 logs
- L. monocytogenes log increase, direct plating ([1]; Shelf Life Day 28): 1.69 logs
- L. monocytogenes overall log increase, MPN method ([1]; Shelf Life Day 28): > 0.23 logs
- L. monocytogenes (MPN/g) or (CFU) ([1]; Shelf Life Day 28 at 40° F.): > 1,100 MPN/g
- Log10 (L. monocytogenes MPN/g) or (CFU) ([1]; Shelf Life Day 28 at 40° F.): 3.04 Log10 MPN/g
- E. coli O157:H7 avg. log values for each pull day ([2]; grown 12 days at 50° F., held at 40° F.): 3-5 logs
- E. coli O157:H7 (MPN/mL) or (CFU) [2, 5]: 1,100 MPN/mL
- Log10 (E. coli O157:H7 MPN/g) or (CFU) [2, 5]: 3.04 Log10 MPN/g
- E. coli O157:H7 (MPN/mL) or (CFU) [2, 6]: 110,000 MPN/mL
- Log10 (E. coli O157:H7 MPN/g) or (CFU) [2, 6]: 5.04 Log10 MPN/g
- E. coli O157:H7 (MPN/mL) or (CFU) [2, 7]: 46,000 MPN/mL
- Log10 (E. coli O157:H7 MPN/g) or (CFU) [2, 7]: 4.66 Log10 MPN/g
- E. coli O157:H7 (MPN/mL) or (CFU) [2, 8]: 930 MPN/mL
- Log10 (E. coli O157:H7 MPN/g) or (CFU) [2, 8]: 2.97 Log10 MPN/g
- E. coli O157:H7 level, MPN method ([2]; grown 12 days at 50° F., Shelf Life Day 28): 2,400 MPN/g
- E. coli O157:H7 overall log reduction, MPN method ([2]; grown 12 days at 50° F., Shelf Life Day 28, from Day 0 inoculated control): 1.73 logs
- E. coli O157:H7 (MPN/mL) or (CFU) [2, 9]: 2,400 MPN/mL
- Log10 (E. coli O157:H7 MPN/g) or (CFU) [2, 9]: 3.38 Log10 MPN/g
- E. coli O157:H7 overall log reduction ([2]; grown 21 days at 40° F., held at 40° F. through Shelf Life Day 28, from Day 0 to below detectable limit): 4.16 logs
- E. coli O157:H7 level, MPN [2, 10]: < 0.3 MPN/g
- E. coli O157:H7 level, direct plating [2, 10]: < 10 cfu/g
- E. coli O157:H7 (MPN/mL) or (CFU) [2, 11]: <30 MPN/mL
- Log10 (E. coli O157:H7 MPN/g) or (CFU) [2, 11]: 0.95 Log10 MPN/g
- E. coli O157:H7 (MPN/mL) or (CFU) [2, 12]: 9.3 MPN/mL
- Log10 (E. coli O157:H7 MPN/g) or (CFU) [2, 12]: 0.97 Log10 MPN/g
- E. coli O157:H7 (MPN/mL) or (CFU) [2, 13]: 0.30 MPN/mL
- Log10 (E. coli O157:H7 MPN/g) or (CFU) [2, 13]: −0.5 Log10 MPN/g
- E. coli O157:H7 (MPN/mL) or (CFU) [2, 14]: <0.3 MPN/mL
- Log10 (E. coli O157:H7 MPN/g) or (CFU) [2, 14]: <−0.5 Log10 MPN/g
- E. coli O157:H7 (MPN/mL) or (CFU) [2, 15]: <0.3 MPN/mL
- Log10 (E. coli O157:H7 MPN/g) or (CFU) [2, 15]: <−0.5 Log10 MPN/g
- impact on the counts in comparison to the Control treatment [3]: did not appear to have a significant impact
- Aerobic Plate Count, average [4]: 8.1 E+8 cfu/g
- Aerobic Plate Count, avg. log value [4]: 8.91
